Experimental data taken from patent US11712426B2, “Metallo-liothyronine” (Synthonics, Inc., priority 2018, dated 2023).

Legend:
[1] = cited from earlier work; for pKa 1 / pKa 2 / pKa 3: Table 1; for pKa of the carboxylic acid(s): carboxylic acid / COOH group
[2] = physchem
[3] = plasma profiles of Na(HT3), Zn(HT3)2 and [Zn(T3)]n after oral administration (Example 11); format: in vivo, male Sprague Dawley rats; conditions: for Cmax average / AUC average / FWHM average (Full Width at Half Maximum): PO capsule; for Cmax average: D = duodenum targeting (Eudragit L100-55) for Zn compounds, S = stomach (uncoated gel cap) for Na(HT3); for AUC average / FWHM average (Full Width at Half Maximum): D for Zn compounds, S for Na(HT3)
Experimental: Duodenum targeting (D) is accomplished by hand coating caps with Eudragit L100-55 (Acryl-Eze, water solvent) designed to dissolve in the duodenum at pH ca. 5.5. Stomach targeting (S) is by using uncoated gel caps.
The Full Width at Half Maximum (FWHM), where Width is measured along the time axis, and Half Maximum is ½Cmax, is a parameter used to evaluate the degree of extended release of drug absorption.

[4] = pH 5.0 and above; cited from earlier work
[5] = in vivo; cited from earlier work

Row | SMILES | pKa 1 [1] | pKa 2 [1] | further results
1 | CC1(C)S[C@@H]2[C@H](NC(=O)[C@H](N)c3ccc(O)cc3)C(=O)N2[C@H]1C(=O)O [Amoxicillin] | 6.71 | 9.41 | pKa of the carboxylic acid(s) [1]: 6.71; pKa of the phenol ([1]; phenol group): 9.41
2 | CO[C@@]1(NC(=O)C2SC(=C(C(N)=O)C(=O)O)S2)C(=O)N2C(C(=O)O)=C(CSc3nnnn3C)CS[C@@H]21 (stereo partly shown) [Cefotetan] | ca. 2 | ca. 3 | pKa of the carboxylic acid(s) [1]: 2-3
3 | CN(C)[C@@H]1C(O)=C(C(N)=O)C(=O)[C@@]2(O)C(O)=C3C(=O)c4c(O)ccc(Cl)c4[C@@](C)(O)[C@H]3C[C@@H]12 [Chlortetracycline] | 3.33 | 7.55 | pKa 3 [1]: 9.33
4 | CN1C[C@@H]2C[C@H]1CN2c1cc2c(cc1F)c(=O)c(C(=O)O)cn2C1CC1 [Danofloxacin] | 6.07 | 8.56 | –
5 | CN(C)[C@@H]1C(O)=C(C(N)=O)C(=O)[C@@]2(O)C(O)=C3C(=O)c4c(O)ccc(Cl)c4[C@@H](O)[C@H]3C[C@@H]12 [Demeclocycline] | 3.37 | 7.36 | pKa 3 [1]: 9.44
6 | CN1CCN(c2cc3c(cc2F)c(=O)c(C(=O)O)cn3-c2ccc(F)cc2)CC1 [Difloxacin] | 5.66 | 7.24 | –
7 | C[C@H]1c2cccc(O)c2C(=O)C2=C(O)[C@]3(O)C(=O)C(C(N)=O)=C(O)[C@@H](N(C)C)[C@@H]3[C@@H](O)[C@@H]21 [Doxycycline] | 3.02 | 7.97 | pKa 3 [1]: 9.15
8 | CCn1cc(C(=O)O)c(=O)c2cc(F)c(N3CCNCC3)nc21 [Enoxacin] | 6.00 | 8.50 | –
9 | CCN1CCN(c2cc3c(cc2F)c(=O)c(C(=O)O)cn3C2CC2)CC1 [Enrofloxacin] | 3.85 | 6.19 | –
10 | N[C@@H](Cc1cc(I)c(Oc2ccc(O)c(I)c2)c(I)c1)C(=O)O [Example T3, triiodothyronine] | – | – | pKa [2]: 8.94
11 | CN1CCN(c2c(F)cc3c(=O)c(C(=O)O)cn(CCF)c3c2F)CC1 [Fleroxacin] | 5.46 | 8.00 | –
12 | CN1CCN(c2c(F)cc3c(=O)c(C(=O)O)cn4c3c2OCN4C)CC1 [Marbofloxacin] | 5.69 | 8.02 | –
13 | C=C1c2c(Cl)ccc(O)c2C(=O)C2=C(O)[C@]3(O)C(=O)C(C(N)=O)=C(O)[C@@H](N(C)C)[C@@H]3[C@@H](O)[C@H]12 [Meclocycline] | 4.05 | 6.87 | pKa 3 [1]: 9.59
14 | CN(Cc1cnc2nc(N)nc(N)c2n1)c1ccc(C(=O)N[C@@H](CCC(=O)O)C(=O)O)cc1 [Methotrexate] | 4.8 | – | –
15 | N[C@@H](Cc1cc(I)c(Oc2ccc(O)c(I)c2)c(I)c1)C(=O)[O-].[Na+] [Na(HT3)] | – | – | Cmax average [3]: 0.45 ng/mL; AUC average [3]: 3.71 ng·h/mL; FWHM average (Full Width at Half Maximum) [3]: 4.9 h
16 | CC1COc2c(N3CCN(C)CC3)c(F)cc3c(=O)c(C(=O)O)cn1c23 (stereo not shown) [Ofloxacin] | 6.22 | 7.81 | –
17 | CN(C)[C@@H]1C(O)=C(C(N)=O)C(=O)[C@@]2(O)C(O)=C3C(=O)c4c(O)cccc4[C@@](C)(O)[C@H]3[C@H](O)[C@@H]12 [Oxytetracycline] | 3.22 | 7.46 | pKa 3 [1]: 8.94
18 | CCn1cc(C(=O)O)c(=O)c2cnc(N3CCNCC3)nc21 [Pipemidic acid] | 5.42 | 8.18 | –
19 | O=C(O)c1cn(-c2ccc(F)cc2)c2cc(N3CCNCC3)c(F)cc2c1=O [Sarafloxacin] | 5.62 | 8.18 | –
20 | CCCCC(=O)N(Cc1ccc(-c2ccccc2-c2nnn[nH]2)cc1)[C@H](C(=O)O)C(C)C [Valsartan] | – | – | in vitro dissolution [4]: complete and rapid; bioavailability [5]: about 25%
21 | N[C@@H](Cc1cc(I)c(Oc2ccc(O)c(I)c2)c(I)c1)C(=O)[O-].N[C@@H](Cc1cc(I)c(Oc2ccc(O)c(I)c2)c(I)c1)C(=O)[O-].[Zn+2] [Zn(HT3)2, Bis-T3 Zinc] | – | – | AUC with respect to simulated Cytomel ([3]; PO): comparable AUC; Cmax with respect to simulated Cytomel ([3]; PO): blunted Cmax; Cmax average [3]: 0.24 ng/mL; AUC average [3]: 3.45 ng·h/mL; FWHM average (Full Width at Half Maximum) [3]: 16.6 h
